What was measured:
ALK F1174C/V = settings: Crizotinib-resistant mutation; cited from earlier work
ALK G1202R = ALK G1202R (Homo sapiens, UniProt Q9UM73, G1202R); settings: Crizotinib-resistant mutation; cited from earlier work
ALK [WT] = ALK [WT] (Homo sapiens, UniProt Q9UM73); experiment: Kinase inhibition assay, ALK [WT]; assay type: biochemical
Description: (§1) Compound preparation: The test compounds were dissolved in DMSO to make 20 mM stock solutions. The compounds were diluted in DMSO to 0.1 mM (a dilution with 100 times the final concentration) before use, and a 3-fold series gradient dilution with 11 concentrations was made. Dilutions with 4 times of the final concentration were prepared by diluting with buffer when dosing.
(§2) Kinase assay: after preparing the buffer solution, the enzyme was mixed with pre-diluted compounds with different concentrations, and placed at room temperature for 30 minutes in duplicate. The corresponding substrate and ATP were added thereto and reacted at room temperature for 60 minutes (both a negative and a positive control were set). After the reaction, antibody was added for detection, and after incubation at room temperature for 60 minutes, Evnvision detection was carried out, and data was collected. Data was analyzed and fit according to XLfit5 software. IC50 was calculated by the following formula: (IC50=[(ABS test−ABS begin)/(ABS control−ABS begin)]×100).

ALK [L1196M] = ALK [L1196M] (Homo sapiens, UniProt Q9UM73, L1196M); experiment: Kinase inhibition assay, ALK [L1196M]; assay type: biochemical
Sequence of ALK [L1196M] (Q9UM73 19-1620 L1196M): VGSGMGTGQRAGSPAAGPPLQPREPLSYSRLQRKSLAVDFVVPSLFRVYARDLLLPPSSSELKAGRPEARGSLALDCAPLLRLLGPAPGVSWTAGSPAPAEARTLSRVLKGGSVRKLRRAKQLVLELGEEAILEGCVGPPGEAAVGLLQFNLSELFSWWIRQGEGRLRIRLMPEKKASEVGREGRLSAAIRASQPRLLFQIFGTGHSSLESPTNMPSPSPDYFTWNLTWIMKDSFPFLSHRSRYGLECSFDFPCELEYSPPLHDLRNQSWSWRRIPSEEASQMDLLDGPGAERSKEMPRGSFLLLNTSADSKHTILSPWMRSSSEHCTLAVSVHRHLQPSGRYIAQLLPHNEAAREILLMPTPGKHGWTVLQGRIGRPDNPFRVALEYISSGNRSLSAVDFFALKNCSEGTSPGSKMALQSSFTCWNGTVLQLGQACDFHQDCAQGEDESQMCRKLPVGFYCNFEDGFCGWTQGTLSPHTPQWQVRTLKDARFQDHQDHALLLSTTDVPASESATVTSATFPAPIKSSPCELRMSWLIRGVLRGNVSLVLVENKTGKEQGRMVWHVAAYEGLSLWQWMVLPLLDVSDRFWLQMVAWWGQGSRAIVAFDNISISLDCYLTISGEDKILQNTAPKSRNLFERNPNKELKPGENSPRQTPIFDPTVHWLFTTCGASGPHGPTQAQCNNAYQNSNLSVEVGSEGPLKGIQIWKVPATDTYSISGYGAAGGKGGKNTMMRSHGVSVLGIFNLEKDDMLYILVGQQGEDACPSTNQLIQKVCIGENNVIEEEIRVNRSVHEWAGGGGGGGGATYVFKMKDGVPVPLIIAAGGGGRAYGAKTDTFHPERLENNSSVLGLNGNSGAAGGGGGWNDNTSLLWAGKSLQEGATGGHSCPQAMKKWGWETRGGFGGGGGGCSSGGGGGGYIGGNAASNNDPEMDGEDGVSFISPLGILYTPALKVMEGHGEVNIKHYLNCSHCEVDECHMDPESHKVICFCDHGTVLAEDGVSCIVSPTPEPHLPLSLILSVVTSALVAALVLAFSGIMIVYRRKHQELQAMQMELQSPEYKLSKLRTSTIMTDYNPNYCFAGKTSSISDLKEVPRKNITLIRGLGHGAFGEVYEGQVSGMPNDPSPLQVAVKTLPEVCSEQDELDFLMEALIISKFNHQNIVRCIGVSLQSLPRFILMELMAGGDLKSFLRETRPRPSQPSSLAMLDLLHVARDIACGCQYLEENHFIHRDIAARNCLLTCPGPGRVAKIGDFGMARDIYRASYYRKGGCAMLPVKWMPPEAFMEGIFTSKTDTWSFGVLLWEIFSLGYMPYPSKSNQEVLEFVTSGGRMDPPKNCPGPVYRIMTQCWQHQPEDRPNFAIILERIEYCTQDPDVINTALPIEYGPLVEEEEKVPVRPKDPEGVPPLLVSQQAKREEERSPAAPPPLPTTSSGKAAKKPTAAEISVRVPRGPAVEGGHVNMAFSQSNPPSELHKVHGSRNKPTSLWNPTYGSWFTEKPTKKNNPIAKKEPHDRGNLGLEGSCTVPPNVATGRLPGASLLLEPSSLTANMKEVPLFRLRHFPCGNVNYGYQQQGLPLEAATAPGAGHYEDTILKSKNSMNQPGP
Description: as §1, §2

BaF3 parental = experiment: Cytotoxicity test (CellTiter-Glo), BaF3 parental; assay type: cell-based; settings: Mus musculus, 72 hours, read-out: IC50(nM) parental (Ba/F3)
Description: (§3) The in vitro anti-proliferative activity of the compounds of the present disclosure against three types of cells that are cultured in vitro was tested by CellTiter-Glo method.
(§4) Cell lines: BaF3 parental; BaF3 [EML4-ALK] (From WuXi PharmaTech) and BaF3 [EMF4-AFK F1196M] (From WuXi PharmaTech); wherein, BaF3 parental was cultured in RPMI1640 medium containing 10 ng/ml IL-3, 10% fetal bovine serum, 100 U/ml penicillin, and 100 μg/ml streptomycin, BaF3 [EMF4-AFK] and BaF3 [EMF4-AFK F1196M] were cultured in RPMI1640 medium containing 10% fetal bovine serum, 100 U/ml penicillin, and 100 μg/ml streptomycin.
(§5) Reagents and materials: RPMI-1640 (GIBCO, Cat. No. A10491-01); fetal bovine serum (GIBCO, Cat. No. 10099141); 0.25% trypsin-EDTA (GIBCO, Cat. No. 25200); penicillin-streptomycin, liquid (GIBCO, Cat. No. 15140-122); DMSO (Sigma, Cat. No. D2650); CellTiter-Glo Test Kit (Promega, Cat. No. G7572), and 96-well plate (Corning, Cat. No. 3365).
(§6) 1. The test compounds were dissolved in DMSO to make stock solutions and subjected to a series gradient dilution to give solutions with 10-fold working concentration.
(§7) 2. The cells in the logarithmic growth phase were diluted with the culture solution to adjust to the specific cell concentration, 90 μi of cell suspension was added to the 96-well plate to make the cell density reach the specified concentration. The plate was incubated in a incubator at 37° C., containing 5% carbon dioxide gas overnight.
(§8) 3. 10 μl drug solutions were added to each well of the 96-well plate inoculated with cells. 10 concentrations of the compounds were tested starting from the highest concentration of 20 μM with a 3-fold series gradient dilution in duplicate.
(§9) 4. After continuously cultured for 72 hours, the cells were detected by CellTiter-Glo for the cell viability. The dose-effect curve was made using GraphPad Prism software and IC50 was calculated.

BaF3 [EML4-ALK] [1] = molecular target: T1, BaF3 [EML4-ALK] (Homo sapiens, UniProt Q9UM73); experiment: Cytotoxicity test (CellTiter-Glo), BaF3 [EML4-ALK]; assay type: cell-based; settings: 72 hours, CellTiter-Glo; read-out: IC50(nM) ALK (Ba/F3)
T1 construct: IC50(nM) ALK (Ba/F3); other: 72 hours, CellTiter-Glo; BaF3 [EML4-ALK]; fused on or other part: Q9HC35 (Echinoderm microtubule-associated protein-like 4)
T1 sequence (Q9UM73 whole entry, change not shown, the tested form may be a part): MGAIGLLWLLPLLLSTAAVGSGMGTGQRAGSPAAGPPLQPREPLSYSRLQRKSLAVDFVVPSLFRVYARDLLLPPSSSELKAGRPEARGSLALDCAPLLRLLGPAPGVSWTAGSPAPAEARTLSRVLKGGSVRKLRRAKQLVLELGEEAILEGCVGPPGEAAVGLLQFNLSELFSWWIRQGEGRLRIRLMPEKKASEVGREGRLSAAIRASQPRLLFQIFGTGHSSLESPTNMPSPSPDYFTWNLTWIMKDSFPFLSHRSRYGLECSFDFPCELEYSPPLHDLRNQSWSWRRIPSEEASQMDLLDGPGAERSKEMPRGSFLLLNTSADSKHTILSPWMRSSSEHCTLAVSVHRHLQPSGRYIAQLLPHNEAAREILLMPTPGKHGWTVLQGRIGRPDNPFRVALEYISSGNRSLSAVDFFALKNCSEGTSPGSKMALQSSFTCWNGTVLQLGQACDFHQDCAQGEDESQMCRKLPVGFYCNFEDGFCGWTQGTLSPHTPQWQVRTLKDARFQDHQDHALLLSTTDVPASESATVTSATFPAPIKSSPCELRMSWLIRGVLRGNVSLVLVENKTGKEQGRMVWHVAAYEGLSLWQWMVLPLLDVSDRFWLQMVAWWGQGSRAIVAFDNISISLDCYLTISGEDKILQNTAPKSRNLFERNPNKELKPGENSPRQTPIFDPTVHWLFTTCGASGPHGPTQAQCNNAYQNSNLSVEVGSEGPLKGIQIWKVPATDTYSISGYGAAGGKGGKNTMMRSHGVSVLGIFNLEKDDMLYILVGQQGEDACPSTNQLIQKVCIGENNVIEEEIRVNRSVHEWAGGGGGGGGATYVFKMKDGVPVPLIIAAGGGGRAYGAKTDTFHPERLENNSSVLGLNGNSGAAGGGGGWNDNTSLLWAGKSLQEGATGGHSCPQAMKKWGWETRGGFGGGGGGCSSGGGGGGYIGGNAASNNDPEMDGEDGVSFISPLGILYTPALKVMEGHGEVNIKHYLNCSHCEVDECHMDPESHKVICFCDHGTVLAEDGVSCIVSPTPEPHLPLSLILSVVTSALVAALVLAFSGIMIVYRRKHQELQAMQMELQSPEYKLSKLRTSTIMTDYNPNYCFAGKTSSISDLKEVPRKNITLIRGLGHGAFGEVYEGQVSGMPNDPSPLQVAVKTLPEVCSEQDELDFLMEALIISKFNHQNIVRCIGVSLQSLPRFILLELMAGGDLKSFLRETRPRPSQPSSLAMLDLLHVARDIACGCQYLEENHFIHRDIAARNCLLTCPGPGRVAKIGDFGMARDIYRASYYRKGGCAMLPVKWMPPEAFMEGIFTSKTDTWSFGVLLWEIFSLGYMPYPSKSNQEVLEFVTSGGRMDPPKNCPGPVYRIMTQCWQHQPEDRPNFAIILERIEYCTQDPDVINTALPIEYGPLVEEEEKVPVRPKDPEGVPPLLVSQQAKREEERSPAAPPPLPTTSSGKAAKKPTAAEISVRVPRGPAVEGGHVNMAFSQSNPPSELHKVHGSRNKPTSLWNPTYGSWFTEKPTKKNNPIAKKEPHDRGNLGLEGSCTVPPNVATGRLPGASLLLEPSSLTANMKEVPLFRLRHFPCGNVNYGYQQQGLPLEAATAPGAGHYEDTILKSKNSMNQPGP
Description: as §3, §4, §5, §6, §7, §8, §9

BaF3 [EML4-ALK] [2] = experiment: Cytotoxicity test (CellTiter-Glo), BaF3 [EML4-ALK]; assay type: cell-based; settings: Ba/F3 cells
Description: as §3, §4, §5, §6, §7, §8, §9

ALK[L1196M] (Ba/F3) [3] = molecular target: T2, ALK[L1196M] (Ba/F3) (Homo sapiens, UniProt Q9UM73, L1196M, cells depend on it); experiment: Cytotoxicity test (CellTiter-Glo), BaF3 EML4-ALK L1196M; assay type: cell-based; settings: 72 hours, CellTiter-Glo; read-out: IC50(nM) ALK[L1196M] (Ba/F3)
T2 construct: IC50(nM) ALK[L1196M]; (Ba/F3); other: 72 hours, CellTiter-Glo; BaF3 [EMF4-AFK F1196M]; fused on or other part: Q9HC35 (Echinoderm microtubule-associated protein-like 4)
T2 sequence (Q9UM73 whole entry L1196M, the tested form may be a part): as the sequence (Q9UM73 whole entry, change not shown, the tested form may be a part) above, with L1196M counted along it
Description: as §3, §4, §5, §6, §7, §8, §9

ALK[L1196M] (Ba/F3) [4] = experiment: as above; assay type: cell-based; settings: Ba/F3 cells
Description: as §3, §4, §5, §6, §7, §8, §9

[5] = Metabolic stability in human liver microsomes; assay type: in vitro ADME; settings: pH 7.4, 1 μM compound, 0.5 mg/mL protein; for microsomal CLint at 1 μM: read-out: CLint (uL/min/mg), Human liver microsome experiment; for half-life at 1 μM: read-out: t1/2 (min), Human liver microsome experiment
Description: (§10) Experiments in microsomes: Human liver microsomes: 0.5 mg/mL, Xenotech; Rat liver microsomes: 0.5 mg/mL, Xenotech; Coenzyme (NADPH/NADH): 1 mM, Sigma Life Science; Magnesium chloride: 5 mM, 100 mM phosphate buffer (pH 7.4).
(§11) Preparation of stock solution: Powder of the example compounds was accurately weighed and dissolved in DMSO to 5 mM. Preparation of phosphate buffer (100 mM, pH7.4): A pre-formulated 0.5M potassium dihydrogen phosphate (150 mL) was mixed with 0.5M dibasic potassium phosphate (700 mL). The pH of the mixture was adjusted to 7.4 with 0.5M dibasic potassium phosphate solution. The mixture was diluted 5-fold with ultrapure water before use, and magnesium chloride was added to obtain a phosphate buffer (100 mM) containing 100 mM potassium phosphate, 3.3 mM magnesium chloride, pH7.4. A NADPH regeneration system solution (containing 6.5 mM NADP, 16.5 mM G-6-P, 3 U/mL G-6-PD, 3.3 mM magnesium chloride) was prepared and placed on wet ice prior to use. Preparation of stop solution: acetonitrile solution containing 50 ng/mL propranolol hydrochloride and 200 ng/mL tolbutamide (internal standard). 25057.5 μL of phosphate buffer (pH 7.4) was taken into a 50 mL centrifuge tube, to which 812.5 μL human liver microsomes were added, and mixed to obtain a liver microsome dilution solution with a protein concentration of 0.625 mg/mL. 25057.5 μL of phosphate buffer (pH 7.4) was taken into a 50 mL centrifuge tube, to which 812.5 μL SD rat liver microsomes were added, and mixed to obtain a liver microsome dilution solution with a protein concentration of 0.625 mg/mL.
(§12) Incubation of the samples: The stock solution of the respective compound was respectively diluted to 0.25 mM with an aqueous solution containing 70% acetonitrile, and used as a working solution, ready for use. 398 μL of the dilution solution of human liver microsomes or rat liver microsome were added to a 96-well incubation plate (N=2), respectively, and 2 μL of 0.25 mM working solution was added and mixed.
(§13) Metabolic stability assay: 300 μL of pre-chilled stop solution was added to each well of a 96-well deep well plate and placed on ice as a stop plate. The 96 well incubation plate and NADPH regeneration system were placed in a 37° C. water bath box, shaken at 100 rpm and pre-incubated for 5 min. 80 μL of incubation solution was taken out from each well of the incubation plate and added to the stop plate, mixed, and replenished with 20 μL of NADPH regeneration system solution as a 0-min sample. 80 μL of NADPH regeneration system solution was added to each well of the incubation plate to start the reaction and start counting. […] Separately, 100 μL of the reaction solution was taken at 10, 30, and 90 min reaction, respectively, added to a stop plate, and vortexed for 3 minutes to terminate the reaction. The stop plate was centrifuged at 5000×g at 4° C. for 4 min. 100 μL of the supernatant was added to a 96-well plate to which 100 μL of distilled water was previously added, mixed, and analyzed by LC-MS/MS.
(§14) Data analysis: The peak areas of the corresponding compound and internal standard were detected by LC-MS/MS system, and the ratio of the peak area of the compound to the internal standard was calculated.

[6] = Metabolic stability in rat liver microsomes; assay type: in vitro ADME; settings: SD, pH 7.4, 1 μM compound, 0.5 mg/mL protein; for microsomal CLint at 1 μM: read-out: CLint (uL/min/mg), Rat liver microsome experiment; for half-life at 1 μM: read-out: t1/2 (min), Rat liver microsome experiment
Description: as §10, §11, §12, §13, §14

Sequence of ALK [WT] (Q9UM73 19-1620): as the sequence (Q9UM73 19-1620 L1196M) above, with M1178L counted along it
Sequence of ALK G1202R (Q9UM73 19-1620 G1202R): as the sequence (Q9UM73 19-1620 L1196M) above, with M1178L, G1184R counted along it

## Cc1cc(Nc2ncc(Cl)c(Nc3ccccc3S(=O)(=O)C(C)C)n2)c(OC(C)C)cc1C1CCNCC1 [Ceritinib]
ALK F1174C/V
  effect on F1174C/V: no effect
ALK G1202R
  effect on G1202R: neither of them has effect

## COc1cc(CCN2CCOCC2)ccc1Nc1ncc(Cl)c(Nc2ccccc2P(C)(C)=O)n1 [Example 6, (2-((5-chloro-2-((2-methoxy-4-(2-morpholinoethyl)phenyl)amino)pyrimidin-4-yl)amino)phenyl)dimethylphosphine oxide]
ALK [WT]
  IC50: 2 to 5 nM
ALK [L1196M]
  IC50: 2 to 5 nM
BaF3 parental
  IC50: ≥ 1000 nM
BaF3 [EML4-ALK] [1]
  GI50: < 25 nM
BaF3 [EML4-ALK] [2]
  Selectivity parental/ALK: 200 to 500
ALK[L1196M] (Ba/F3) [3]
  GI50: 100 to 200 nM
ALK[L1196M] (Ba/F3) [4]
  Selectivity parental/ALK[L1196M]: <50
[5]
  microsomal CLint at 1 μM: 29.1 µL/min/mg
  half-life at 1 μM: 47.6 min
[6]
  microsomal CLint at 1 μM: 85.1 µL/min/mg
  half-life at 1 μM: 16.3 min

## COc1cc(CCN(C)C)c(C)cc1Nc1ncc(Cl)c(Nc2ccccc2P(C)(C)=O)n1 [Example 20, (2-((5-chloro-2-((4-(2-(dimethylamino)ethyl)-2-methoxy-5-methylphenyl)amino)pyrimidin-4-yl)amino)phenyl)dimethylphosphine oxide]
ALK [WT]
  IC50: 2 to 5 nM
ALK [L1196M]
  IC50: 2 to 5 nM
BaF3 parental
  IC50: ≥ 1000 nM
BaF3 [EML4-ALK] [1]
  GI50: 25 to 50 nM
BaF3 [EML4-ALK] [2]
  Selectivity parental/ALK: 50 to 100
ALK[L1196M] (Ba/F3) [3]
  GI50: 25 to 50 nM
ALK[L1196M] (Ba/F3) [4]
  Selectivity parental/ALK[L1196M]: 50 to 100
[5]
  microsomal CLint at 1 μM: 5.4 µL/min/mg
  half-life at 1 μM: 259 min
[6]
  microsomal CLint at 1 μM: 32.3 µL/min/mg
  half-life at 1 μM: 42.9 min

## COc1cc(C(C)(C)N(C)C)ccc1Nc1ncc(Cl)c(Nc2ccccc2P(C)(C)=O)n1 [Example 14, (2-((5-chloro-2-((4-(2-(dimethylamino)propan-2-yl)-2-methoxyphenyl)amino)pyrimidin-4-yl)amino)phenyl)dimethylphosphine oxide]
ALK [WT]
  IC50: ≤ 2 nM
ALK [L1196M]
  IC50: 2 to 5 nM
BaF3 parental
  IC50: ≥ 1000 nM
BaF3 [EML4-ALK] [1]
  GI50: < 25 nM
BaF3 [EML4-ALK] [2]
  Selectivity parental/ALK: 100 to 200
ALK[L1196M] (Ba/F3) [3]
  GI50: 50 to 100 nM
ALK[L1196M] (Ba/F3) [4]
  Selectivity parental/ALK[L1196M]: <50
[5]
  microsomal CLint at 1 μM: 29.9 µL/min/mg
  half-life at 1 μM: 46.4 min
[6]
  microsomal CLint at 1 μM: 33.4 µL/min/mg
  half-life at 1 μM: 41.5 min

## CNCCc1cc(OC)c(Nc2ncc(Cl)c(Nc3ccccc3P(C)(C)=O)n2)cc1C [Example 21, (2-((5-chloro-2-((2-methoxy-5-methyl-4-(2-(methylamino)ethyl)phenyl)amino)pyrimidin-4-yl)amino)phenyl)dimethylphosphine oxide]
ALK [WT]
  IC50: 2 to 5 nM
ALK [L1196M]
  IC50: 5 to 10 nM
BaF3 parental
  IC50: ≥ 1000 nM
BaF3 [EML4-ALK] [1]
  GI50: 100 to 200 nM
BaF3 [EML4-ALK] [2]
  Selectivity parental/ALK: <50
ALK[L1196M] (Ba/F3) [3]
  GI50: 200 to 1000 nM
ALK[L1196M] (Ba/F3) [4]
  Selectivity parental/ALK[L1196M]: <50
[5]
  microsomal CLint at 1 μM: 27.7 µL/min/mg
  half-life at 1 μM: 50 min
[6]
  microsomal CLint at 1 μM: 7.2 µL/min/mg
  half-life at 1 μM: 193 min

## COc1cc(C(C)CN(C)C)ccc1Nc1ncc(Cl)c(Nc2ccccc2P(C)(C)=O)n1 (stereo not drawn) [Example 17, (2-((5-chloro-2-((4-(1-(dimethylamino)propan-2-yl)-2-methoxyphenyl)amino)pyrimidin-4-yl)amino)phenyl)dimethylphosphine oxide]
ALK [WT]
  IC50: 5 to 10 nM
ALK [L1196M]
  IC50: 5 to 10 nM
BaF3 parental
  IC50: ≥ 1000 nM
BaF3 [EML4-ALK] [1]
  GI50: 25 to 50 nM
BaF3 [EML4-ALK] [2]
  Selectivity parental/ALK: 100 to 200
ALK[L1196M] (Ba/F3) [3]
  GI50: 100 to 200 nM
ALK[L1196M] (Ba/F3) [4]
  Selectivity parental/ALK[L1196M]: 50 to 100
[5]
  microsomal CLint at 1 μM: 18.6 µL/min/mg
  half-life at 1 μM: 74.3 min
[6]
  microsomal CLint at 1 μM: 29.7 µL/min/mg
  half-life at 1 μM: 46.7 min

— patent US11254696B2, “Dianilinopyrimidine compound for inhibiting kinase activity” (Shenzhen Targetrx, Inc., priority 2017, dated 2022)
